Data published in ChEMBL document CHEMBL1146620, “Structure-activity relationships of the peptide deformylase inhibitor BB-3497: modification of the methylene spacer and the P1' side chain” (Bioorg Med Chem Lett, 2003).
Values after ≈ are worked out from the molar mass of the structure shown.

Tests used:
[1] = system: Staphylococcus capitis; assay: Antibacterial activity against Staphylococcus capitis; type: functional
[2] = system: Escherichia coli; assay: Antibacterial activity against Escherichia coli; type: functional
[3] = target: Peptide deformylase (Escherichia coli) (UniProt P0A6K3); assay: Inhibition against Escherichia coli Peptide deformylase was measured at a concentration of 1 uM
Chain of Peptide deformylase (Escherichia coli) (P0A6K3 whole entry, looked up): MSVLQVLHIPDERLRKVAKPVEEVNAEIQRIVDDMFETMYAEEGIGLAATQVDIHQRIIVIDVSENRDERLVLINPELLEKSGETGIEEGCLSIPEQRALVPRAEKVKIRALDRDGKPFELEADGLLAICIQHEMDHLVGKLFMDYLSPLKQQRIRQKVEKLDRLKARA

Compound | MIC [1] | MIC [2] | inhibition [3]
CCCC[C@@H](C(=O)N[C@H](C(=O)N(C)C)C(C)(C)C)N(O)C=O | > 200 µM | > 200 µM | 20%
CCCC[C@@H](CN(O)C=O)C(=O)N[C@H](C(=O)N(C)C)C(C)(C)C | > 200 µM | > 200 µM | –
C=CC[C@H](CN(O)C=O)C(=O)N[C@H](C(=O)N(C)C)C(C)(C)C | > 200 µM | 50 µM (≈ 15.7 µg/mL) | –
CCC[C@H](CN(O)C=O)C(=O)N[C@H](C(=O)N(C)C)C(C)(C)C | > 200 µM | 50 µM (≈ 15.8 µg/mL) | –
CC(C)[C@H](CN(O)C=O)C(=O)N[C@H](C(=O)N(C)C)C(C)(C)C | > 200 µM | > 200 µM | –
CCCC[C@H](C(=O)N[C@H](C(=O)N(C)C)C(C)(C)C)N(O)C=O | > 200 µM | > 200 µM | 30%
CN(C)C(=O)[C@@H](NC(=O)[C@@H](CN(O)C=O)C1CCCC1)C(C)(C)C | > 200 µM | > 200 µM | –
CC[C@H](CN(O)C=O)C(=O)N[C@H](C(=O)N(C)C)C(C)(C)C | > 200 µM | 200 µM (≈ 60.3 µg/mL) | –
CN(C)C(=O)[C@@H](NC(=O)[C@@H](CN(O)C=O)CN1CCCCC1)C(C)(C)C | > 200 µM | > 200 µM | –
CCCC[C@H](CCN(O)C=O)C(=O)N[C@H](C(=O)N(C)C)C(C)(C)C | > 200 µM | > 200 µM | –
CCSC[C@H](CN(O)C=O)C(=O)N[C@H](C(=O)N(C)C)C(C)(C)C | > 200 µM | 25 µM (≈ 8.69 µg/mL) | –
CCCCCCC[C@H](CN(O)C=O)C(=O)N[C@H](C(=O)N(C)C)C(C)(C)C | > 200 µM | > 200 µM | –
C[C@H](CN(O)C=O)C(=O)N[C@H](C(=O)N(C)C)C(C)(C)C | > 200 µM | > 200 µM | –
CCCC[C@@H](C(=O)N[C@H](C(=O)N(C)C)C(C)(C)C)C(C)N(O)C=O (some centres undefined) | > 200 µM | > 200 µM | –

Results, then the compound that gave them:

MIC [1] | MIC [2] | inhibition [3] | Compound
> 200 µM | > 200 µM | – | CN(C)C(=O)[C@@H](NC(=O)[C@@H](CN(O)C=O)c1ccc(Cl)cc1)C(C)(C)C
> 200 µM | > 200 µM | – | COc1ccc(C[C@H](CN(O)C=O)C(=O)N[C@H](C(=O)N(C)C)C(C)(C)C)cc1
25 µM (≈ 9.24 µg/mL) | 50 µM (≈ 18.5 µg/mL) | – | CN(C)C(=O)[C@@H](NC(=O)[C@H](CC1CCCCC1)CN(O)C=O)C(C)(C)C
> 200 µM | 100 µM (≈ 35.7 µg/mL) | – | CCCCCC[C@H](CN(O)C=O)C(=O)N[C@H](C(=O)N(C)C)C(C)(C)C
> 200 µM | > 200 µM | – | CCCCCCCC[C@H](CN(O)C=O)C(=O)N[C@H](C(=O)N(C)C)C(C)(C)C
25 µM (≈ 8.59 µg/mL) | 25 µM (≈ 8.59 µg/mL) | – | CCCCC[C@H](CN(O)C=O)C(=O)N[C@H](C(=O)N(C)C)C(C)(C)C
200 µM (≈ 65.5 µg/mL) | 25 µM (≈ 8.19 µg/mL) | – | C=CCC[C@H](CN(O)C=O)C(=O)N[C@H](C(=O)N(C)C)C(C)(C)C
200 µM (≈ 65.9 µg/mL) | 100 µM (≈ 32.9 µg/mL) | – | CC(C)C[C@H](CN(O)C=O)C(=O)N[C@H](C(=O)N(C)C)C(C)(C)C
200 µM (≈ 68.7 µg/mL) | 50 µM (≈ 17.2 µg/mL) | – | CC(C)CC[C@H](CN(O)C=O)C(=O)N[C@H](C(=O)N(C)C)C(C)(C)C
100 µM (≈ 32.5 µg/mL) | 50 µM (≈ 16.3 µg/mL) | – | CC#CC[C@H](CN(O)C=O)C(=O)N[C@H](C(=O)N(C)C)C(C)(C)C
50 µM (≈ 18.2 µg/mL) | 25 µM (≈ 9.09 µg/mL) | – | CN(C)C(=O)[C@@H](NC(=O)[C@H](Cc1ccccc1)CN(O)C=O)C(C)(C)C
12.5 µM (≈ 4.44 µg/mL) | 12.5 µM (≈ 4.44 µg/mL) | – | CN(C)C(=O)[C@@H](NC(=O)[C@H](CC1CCCC1)CN(O)C=O)C(C)(C)C
